Laboratory results reported in paper PMC3778407, “Topochemical control of the photodimerization of aromatic compounds by γ-cyclodextrin thioethers in aqueous solution” (Beilstein Journal of Organic Chemistry, 2013).
≈ marks a conversion by molar mass, not a printed value. Read-outs that look alike come from different tables or passages of the source. Values belong to the compound of their own block, whether it stands above or below them.

Experiments:
[1] = parameters: method as in PMID 21739610; conditions: K/10^9 [M^−2]; host/guest 1:2; cited from earlier work
[2] = parameters: method as in PMID 21739610; conditions: K/10^6 M^−2; 1:2 host/guest; cited from earlier work
[3] = cited from earlier work
[4] = Aqueous solubility of guests and solubilization by γ-CD thioethers; format: physicochemical; conditions: read-out: [COU]0 solubility of COU
Procedure: (§1) Because the concentration of the free guest [G]free is determined by two coupled thermodynamic equilibria (Equation 1). The 2-phase solubility equilibrium is expressed by Equation 2 and the equilibrium of complexation by the CD host is formulated in Equation 3. The guest dissolves until the concentration of free guest is equal to the solubility of the guest, [G]0 = [G]free. Consequently, the lower the solubility of the guest in water, the lower the fraction of uncomplexed guests. The lower the concentration of the free guest, the lower the contribution of undesirable and non-specific photodimerization to the total quantum yield, according to Equation 4. Consequently, lowering the aqueous solubility of COU by the addition of salt, taking advantage of the so-called “salting-out effect” [46] appeared to be a plausible way to enhance the reaction selectivity of the syn-HH dimer.
(§2) Photoreaction procedures: Aqueous solutions of the native CDs or γ-CD thioethers (25 mL, 6.0 mM) were added into glass vials containing excess amounts of the guest molecules. To evaluate the salting-out effect on the photo-product distribution of COU, different amounts of sodium sulfate were added to the vials to obtain the desired final salt concentration (Na2SO4 concentration: 0, 0.5, 1.0, and 1.5 M). Sample solutions were thoroughly degassed using sonication. The vials were tightly sealed, protected from light, and magnetically stirred at room temperature. After 72 h, the resulting suspensions were filtered through syringe filters. The concentrations of the reactants in the CD solutions were determined from the UV–vis extinction coefficients at the absorption maxima.

[5] = 1:2 (host/guest) binding constant of COU in γ-CD thioether 2 from solubility measurements
Procedure: as §1
Both effects based on the salt concentration led to a significant reduction in the contribution of the photodimerization of free COU to the total quantum yield Φ in Equation 4. Taking into account the molar fraction of the formation of syn-HH in water [drawing 5] from Table 3 and in the complex [drawing 6] , and assuming the quantum yield for the complex as Φcomplex = 19%, the total molar fraction [drawing 7] was calculated according to Equation 5, which was derived from Equation 4. The concentration of complexed COU, [COU]C, was determined as the increase in the solubility of COU upon the addition of the host. The calculated total quantum yields and molar fractions of the syn-HH isomer, listed in Table 5, are in good agreement with the measured values, listed in Table 4. It also shoes, that the binding constant K, calculated according to the law of mass action for the 1:2 (host/guest) complex, tremendously increases with the salt concentration leading to a strong increase of the complexed portion of COU. In contrast to the previous ANT system, the quantum yield of COU photodimerization increases with the binding const K, because K is much lower for COU than for ANT so that contribution of free COU is not negligible.
as §2, with “The vials were tightly sealed, protected from light, and magnetically stirred at room temperature. After 72 h, the resulting suspensions were filtered through syringe filters.” left out

Structure (SMILES): OCC(O)CSC[C@H]1O[C@@H]2O[C@H]3[C@H](O)[C@@H](O)[C@@H](O[C@H]4[C@H](O)[C@@H](O)[C@@H](O[C@H]5[C@H](O)[C@@H](O)[C@@H](O[C@H]6[C@H](O)[C@@H](O)[C@@H](O[C@H]7[C@H](O)[C@@H](O)[C@@H](O[C@H]8[C@H](O)[C@@H](O)[C@@H](O[C@H]9[C@H](O)[C@@H](O)[C@@H](O[C@H]1[C@H](O)[C@H]2O)O[C@@H]9CSCC(O)CO)O[C@@H]8CSCC(O)CO)O[C@@H]7CSCC(O)CO)O[C@@H]6CSCC(O)CO)O[C@@H]5CSCC(O)CO)O[C@@H]4CSCC(O)CO)O[C@@H]3CSCC(O)CO (some centres unmarked) [Host 5]
1:2 binding constant K of ANT [1]: 3.7 10^9 M^−2

Structure (SMILES): O=S(=O)(O)CCSC[C@H]1O[C@@H]2O[C@H]3[C@H](O)[C@@H](O)[C@@H](O[C@H]4[C@H](O)[C@@H](O)[C@@H](O[C@H]5[C@H](O)[C@@H](O)[C@@H](O[C@H]6[C@H](O)[C@@H](O)[C@@H](O[C@H]7[C@H](O)[C@@H](O)[C@@H](O[C@H]8[C@H](O)[C@@H](O)[C@@H](O[C@H]9[C@H](O)[C@@H](O)[C@@H](O[C@H]1[C@H](O)[C@H]2O)O[C@@H]9CSCCS(=O)(=O)O)O[C@@H]8CSCCS(=O)(=O)O)O[C@@H]7CSCCS(=O)(=O)O)O[C@@H]6CSCCS(=O)(=O)O)O[C@@H]5CSCCS(=O)(=O)O)O[C@@H]4CSCCS(=O)(=O)O)O[C@@H]3CSCCS(=O)(=O)O [Host 3]
1:2 binding constant K of ANT [1]: 6.8 10^9 M^−2 | binding constant K of ACE [2]: 37 10^6 M^−2

Structure (SMILES): CC(SC[C@H]1O[C@@H]2O[C@H]3[C@H](O)[C@@H](O)[C@@H](O[C@H]4[C@H](O)[C@@H](O)[C@@H](O[C@H]5[C@H](O)[C@@H](O)[C@@H](O[C@H]6[C@H](O)[C@@H](O)[C@@H](O[C@H]7[C@H](O)[C@@H](O)[C@@H](O[C@H]8[C@H](O)[C@@H](O)[C@@H](O[C@H]9[C@H](O)[C@@H](O)[C@@H](O[C@H]1[C@H](O)[C@H]2O)O[C@@H]9CSC(C)C(=O)O)O[C@@H]8CSC(C)C(=O)O)O[C@@H]7CSC(C)C(=O)O)O[C@@H]6CSC(C)C(=O)O)O[C@@H]5CSC(C)C(=O)O)O[C@@H]4CSC(C)C(=O)O)O[C@@H]3CSC(C)C(=O)O)C(=O)O (some centres unmarked) [Host 4]
1:2 binding constant K of ANT [1]: 3.4 10^9 M^−2

Structure (SMILES): NCCSC[C@H]1O[C@@H]2O[C@H]3[C@H](O)[C@@H](O)[C@@H](O[C@H]4[C@H](O)[C@@H](O)[C@@H](O[C@H]5[C@H](O)[C@@H](O)[C@@H](O[C@H]6[C@H](O)[C@@H](O)[C@@H](O[C@H]7[C@H](O)[C@@H](O)[C@@H](O[C@H]8[C@H](O)[C@@H](O)[C@@H](O[C@H]9[C@H](O)[C@@H](O)[C@@H](O[C@H]1[C@H](O)[C@H]2O)O[C@@H]9CSCCN)O[C@@H]8CSCCN)O[C@@H]7CSCCN)O[C@@H]6CSCCN)O[C@@H]5CSCCN)O[C@@H]4CSCCN)O[C@@H]3CSCCN [Host 1]
1:2 binding constant K of ANT [1]: 22.8 10^9 M^−2 | highest concentration of ANT achieved, [ANT] ([3]; 6 mM solution of host in water): 0.04 mM

solubility at 72 h ([4]; water with Na2SO4, thermodynamic from solid, [Na2SO4] 0.5 M): 8.5 mM (≈ 1240 µg/mL) | solubility at 72 h ([4]; water with Na2SO4, thermodynamic from solid, [Na2SO4] 1.0 M): 4.7 mM (≈ 687 µg/mL) | solubility at 72 h ([4]; water with Na2SO4, thermodynamic from solid, [Na2SO4] 1.5 M): 2.6 mM (≈ 380 µg/mL) | solubility at 72 h ([4]; water, thermodynamic from solid, [Na2SO4] 0.0 M): 15.2 mM (≈ 2220 µg/mL)
Structure (SMILES): O=c1ccc2ccccc2o1 [COU, coumarin]
aqueous solubility ([3]; water): 15 mM (≈ 2190 µg/mL)

Structure (SMILES): COCCOCCOCCSC[C@H]1O[C@@H]2O[C@H]3[C@H](O)[C@@H](O)[C@@H](O[C@H]4[C@H](O)[C@@H](O)[C@@H](O[C@H]5[C@H](O)[C@@H](O)[C@@H](O[C@H]6[C@H](O)[C@@H](O)[C@@H](O[C@H]7[C@H](O)[C@@H](O)[C@@H](O[C@H]8[C@H](O)[C@@H](O)[C@@H](O[C@H]9[C@H](O)[C@@H](O)[C@@H](O[C@H]1[C@H](O)[C@H]2O)O[C@@H]9CSCCOCCOCCOC)O[C@@H]8CSCCOCCOCCOC)O[C@@H]7CSCCOCCOCCOC)O[C@@H]6CSCCOCCOCCOC)O[C@@H]5CSCCOCCOCCOC)O[C@@H]4CSCCOCCOCCOC)O[C@@H]3CSCCOCCOCCOC [Host 7]
1:2 binding constant K of ANT [1]: 7.7 10^9 M^−2

binding constant K of COU complexed in 2 ([5]; [Na2SO4] 0.0 M, 1:2 host/guest, law of mass action, from solubility measurements): 2 10^3 M^−2 | binding constant K of COU complexed in 2 ([5]; [Na2SO4] 0.5 M): 30 10^3 M^−2 | binding constant K of COU complexed in 2 ([5]; [Na2SO4] 1.0 M): 97 10^3 M^−2 | binding constant K of COU complexed in 2 ([5]; [Na2SO4] 1.5 M): 1000 10^3 M^−2
Structure (SMILES): O=C(O)CSC[C@H]1O[C@@H]2O[C@H]3[C@H](O)[C@@H](O)[C@@H](O[C@H]4[C@H](O)[C@@H](O)[C@@H](O[C@H]5[C@H](O)[C@@H](O)[C@@H](O[C@H]6[C@H](O)[C@@H](O)[C@@H](O[C@H]7[C@H](O)[C@@H](O)[C@@H](O[C@H]8[C@H](O)[C@@H](O)[C@@H](O[C@H]9[C@H](O)[C@@H](O)[C@@H](O[C@H]1[C@H](O)[C@H]2O)O[C@@H]9CSCC(=O)O)O[C@@H]8CSCC(=O)O)O[C@@H]7CSCC(=O)O)O[C@@H]6CSCC(=O)O)O[C@@H]5CSCC(=O)O)O[C@@H]4CSCC(=O)O)O[C@@H]3CSCC(=O)O [Host 2]
1:2 binding constant K of ANT [1]: 7.7 10^9 M^−2

Structure (SMILES): c1ccc2cc3ccccc3cc2c1 [ANT, anthracene]
solubility of free ANT ([3]; water): 0.0004 mM

Structure (SMILES): O=C(O)CCSC[C@H]1O[C@@H]2O[C@H]3[C@H](O)[C@@H](O)[C@@H](O[C@H]4[C@H](O)[C@@H](O)[C@@H](O[C@H]5[C@H](O)[C@@H](O)[C@@H](O[C@H]6[C@H](O)[C@@H](O)[C@@H](O[C@H]7[C@H](O)[C@@H](O)[C@@H](O[C@H]8[C@H](O)[C@@H](O)[C@@H](O[C@H]9[C@H](O)[C@@H](O)[C@@H](O[C@H]1[C@H](O)[C@H]2O)O[C@@H]9CSCCC(=O)O)O[C@@H]8CSCCC(=O)O)O[C@@H]7CSCCC(=O)O)O[C@@H]6CSCCC(=O)O)O[C@@H]5CSCCC(=O)O)O[C@@H]4CSCCC(=O)O)O[C@@H]3CSCCC(=O)O [Host 6]
1:2 binding constant K of ANT [1]: 6.5 10^9 M^−2 | binding constant K of ACE [2]: 27 10^6 M^−2
